How the values were obtained:
[1] = target: T1, BuChE (Homo sapiens, UniProt P06276); details: in words; cited from earlier work
[2] = target: T1, BuChE; experiment: Sensitivity of BuChE to cholinesterase inhibitors (background); assay type: biochemical; details: ratio of Ki BuChE to Ki AChE

T1 sequence (P06276 29-602): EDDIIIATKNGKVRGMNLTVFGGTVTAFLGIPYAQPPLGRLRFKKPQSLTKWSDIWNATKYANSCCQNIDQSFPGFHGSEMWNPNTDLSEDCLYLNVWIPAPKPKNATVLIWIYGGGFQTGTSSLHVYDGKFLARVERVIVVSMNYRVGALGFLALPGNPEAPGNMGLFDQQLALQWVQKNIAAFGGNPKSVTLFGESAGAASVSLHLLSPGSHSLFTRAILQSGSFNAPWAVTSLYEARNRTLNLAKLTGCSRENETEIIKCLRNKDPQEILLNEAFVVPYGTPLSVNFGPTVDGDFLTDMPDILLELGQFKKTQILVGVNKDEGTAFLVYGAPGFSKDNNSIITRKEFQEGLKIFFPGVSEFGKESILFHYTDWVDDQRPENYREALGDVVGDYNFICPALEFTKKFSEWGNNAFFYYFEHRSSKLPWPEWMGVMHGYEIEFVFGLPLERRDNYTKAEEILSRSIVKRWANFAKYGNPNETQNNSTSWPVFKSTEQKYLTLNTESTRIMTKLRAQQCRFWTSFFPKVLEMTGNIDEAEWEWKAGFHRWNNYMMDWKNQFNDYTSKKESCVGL

SMILES: CC(C)NP(=O)(NC(C)C)OP(=O)(NC(C)C)NC(C)C [Iso-OMPA, tetraisopropyl pyrophosphoramide]
- sensitivity of BuChE to the inhibitor compared with AChE [1]: much more sensitive

SMILES: C=CC[N+](C)(C)c1ccc(CCC(=O)CCc2ccc([N+](C)(C)CC=C)cc2)cc1 [BW284c51, 1,5-bis(4-allyldimethylammoniumphenyl)pentan-3-one dibromide]
- difference in sensitivity of BuChE compared to AChE [2]: 1400 fold

From patent US9062321B2 (priority 2004, dated 2015)
